Measured values from patent publication US20240390508A1, “HUMAN TRANSFERRIN RECEPTOR BINDING PEPTIDE-DRUG CONJUGATE” (priority 2021, published 2024).
pKd: −log10 of the molar value.

Molecular target: transferrin receptor (hTfR) (Homo sapiens, UniProt P02786)
Assay: Intermolecular interaction evaluation test between transferrin receptor (hTfR) and peptide-nucleic acid conjugate using surface plasmon resonance (SPR)
Assay type: binding
Experimental: Intermolecular interaction evaluation test between transferrin receptor (hTfR) and peptide using surface plasmon resonance (SPR)
The various synthesized peptide-nucleic acid conjugates were tested for intermolecular interaction by surface plasmon resonance (SPR) of the peptide-nucleic acid conjugate with transferrin receptor (hTfR) using the method shown below. The specific test method is shown below.
NTA sensor chip (Global Life Science Technologies Japan Co., Ltd.) was inserted into Biacore T200 (Global Life Science Technologies Japan Co., Ltd.), prime operation was performed three times with running buffer: 10 mM HEPES pH 8.0 (Nacalai Tesque Co., Ltd.), 150 mM NaCl (Nacalai Tesque Co., Ltd.), 0.05% Tween 20 (Nacalai Tesque Co., Ltd.), 0.1% BSA (SIGMA-ALDRICH), and 1.0% DMSO (FUJIFILM Wako Pure Chemical Corporation), and equilibrated at a flow rate of 30 μL/min. 350 mM EDTA solution was reacted for 60 seconds at a flow rate of 10 μL/min, 0.5 mM NiCl2 solution (Kishida Chemical) was reacted for 60 seconds at a flow rate of 10 μL/min, and the NTA sensor chip was washed with 3 mM EDTA solution (Nacalai Tesque Co., Ltd.) for 60 seconds at a flow rate of 10 μL/min. After mixing 50 μL each of […] EDC solution (Global Life Science Technologies Japan Co., Ltd.) and […] NHS solution (Global Life Science Technologies Japan Co., Ltd.), the mixture was reacted for 420 seconds at a flow rate of 10 μL/min. 150 μL of a 0.5 μM hTfR solution was prepared by diluting with a running buffer and reacted for 300 seconds at a flow rate of 10 μL/min to immobilize hTfR on the NTA sensor chip. After immobilization, capping was performed by reacting with a 1.0 M ethanolamine aqueous solution (Global Life Science Technologies Japan Co., Ltd.) at a flow rate of 10 μL/min for 420 seconds. A peptide-nucleic acid conjugate solution adjusted to 10 mM in DMSO solution was diluted with running buffer to a final concentration of 10 μM peptide-nucleic acid conjugate solution, and 100 nM, 50 nM, 25 nM, 10 nM, 5 nM peptide-nucleic acid conjugate solutions were prepared. Using the aforementioned samples, the kinetics of the peptide against hTfR was obtained by SPR measurement.
The kinetics evaluation model was Single Cycle Kinetics, and curve fitting was performed using Biacore T200 Evaluation Software Version 3.0 (Global Life Science Technologies Japan Co., Ltd.). The obtained sensorgram was subjected to curve fitting using the least squares method, and the binding of the peptide-nucleic acid conjugate to hTfR was evaluated by determining the KD value.

Sequence of transferrin receptor (hTfR) (P02786 whole entry): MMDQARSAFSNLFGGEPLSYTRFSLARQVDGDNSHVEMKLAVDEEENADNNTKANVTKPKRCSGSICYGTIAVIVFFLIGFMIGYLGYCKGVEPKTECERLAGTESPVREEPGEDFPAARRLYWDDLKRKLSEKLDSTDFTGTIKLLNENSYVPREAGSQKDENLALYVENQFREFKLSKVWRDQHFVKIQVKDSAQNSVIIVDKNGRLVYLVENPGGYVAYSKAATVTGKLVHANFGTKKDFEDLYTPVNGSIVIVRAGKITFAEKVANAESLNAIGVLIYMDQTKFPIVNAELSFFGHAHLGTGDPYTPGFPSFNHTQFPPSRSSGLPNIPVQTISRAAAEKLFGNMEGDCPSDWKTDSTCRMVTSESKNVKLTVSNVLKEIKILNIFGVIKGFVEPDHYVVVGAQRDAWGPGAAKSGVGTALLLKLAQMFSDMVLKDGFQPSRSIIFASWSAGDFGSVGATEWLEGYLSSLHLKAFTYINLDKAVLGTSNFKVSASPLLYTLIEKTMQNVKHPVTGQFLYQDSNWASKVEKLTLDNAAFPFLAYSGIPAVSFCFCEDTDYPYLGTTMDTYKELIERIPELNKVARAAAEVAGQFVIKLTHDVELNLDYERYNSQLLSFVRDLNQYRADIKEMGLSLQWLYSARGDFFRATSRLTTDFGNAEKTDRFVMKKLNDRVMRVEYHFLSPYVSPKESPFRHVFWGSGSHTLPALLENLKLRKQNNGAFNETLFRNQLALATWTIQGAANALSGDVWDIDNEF

Row | Structure (SMILES) | pKd
1 | CC[C@H](C)[C@@H]1NC(=O)[C@H](Cc2ccc(O)cc2)NC(=O)[C@H](Cc2ccc(O)cc2)NC(=O)[C@H](CC(N)=O)NC(=O)[C@H](Cc2c[nH]c3ccccc23)NC(=O)[C@H](C(C)C)NC(=O)[C@H](Cc2ccccc2)N(C)C(=O)[C@H](C(C)C)NC(=O)[C@H](C)NC(=O)CSC[C@@H](C(=O)NCC(=O)N[C@@H](CCCCn2nnc3c2CCC2C(CC3)C2COC(=O)NCC(=O)NCC(=O)NCC(=O)N[C@@H](CCC(=O)O)C(=O)N[C@@H](CCC(=O)O)C(=O)N[C@@H](CCC(=O)O)C(=O)N[C@@H](CO)C(=O)N[C@@H](CO)C(=O)N[C@@H](CSC2CC(=O)N(CCC(=O)N3C[C@@H](COP(=O)(N(C)C)N4C[C@@H](COP(=O)(N(C)C)N5C[C@@H](COP(=O)(N(C)C)N6C[C@@H](COP(=O)(N(C)C)N7C[C@@H](COP(=O)(N(C)C)N8C[C@@H](COP(=O)(N(C)C)N9C[C@@H](COP(=O)(N(C)C)N%10C[C@@H](COP(=O)(N(C)C)N%11C[C@@H](COP(=O)(N(C)C)N%12C[C@@H](COP(=O)(N(C)C)N%13C[C@@H](COP(=O)(N(C)C)N%14C[C@@H](COP(=O)(N(C)C)N%15C[C@@H](COP(=O)(N(C)C)N%16C[C@@H](COP(=O)(N(C)C)N%17C[C@@H](COP(=O)(N(C)C)N%18C[C@@H](COP(=O)(N(C)C)N%19C[C@@H](COP(=O)(N(C)C)N%20C[C@@H](COP(=O)(N(C)C)N%21C[C@@H](COP(=O)(N(C)C)N%22C[C@@H](COP(=O)(N(C)C)N%23C[C@@H](COP(=O)(N(C)C)N%24C[C@@H](COP(=O)(N(C)C)N%25C[C@@H](COP(=O)(N(C)C)N%26C[C@@H](COP(=O)(N(C)C)N%27C[C@@H](COP(=O)(N(C)C)N(C)CC(N)=O)O[C@@H](n%28cnc%29c(=O)[nH]c(N)nc%29%28)C%27)O[C@@H](n%27cc(C)c(=O)[nH]c%27=O)C%26)O[C@@H](n%26cc(C)c(=O)[nH]c%26=O)C%25)O[C@@H](n%25cnc%26c(=O)[nH]c(N)nc%26%25)C%24)O[C@@H](n%24ccc(N)nc%24=O)C%23)O[C@@H](n%23ccc(N)nc%23=O)C%22)O[C@@H](n%22cc(C)c(=O)[nH]c%22=O)C%21)O[C@@H](n%21ccc(N)nc%21=O)C%20)O[C@@H](n%20ccc(N)nc%20=O)C%19)O[C@@H](n%19cnc%20c(=O)[nH]c(N)nc%20%19)C%18)O[C@@H](n%18cnc%19c(=O)[nH]c(N)nc%19%18)C%17)O[C@@H](n%17cc(C)c(=O)[nH]c%17=O)C%16)O[C@@H](n%16cc(C)c(=O)[nH]c%16=O)C%15)O[C@@H](n%15ccc(N)nc%15=O)C%14)O[C@@H](n%14cc(C)c(=O)[nH]c%14=O)C%13)O[C@@H](n%13cnc%14c(=O)[nH]c(N)nc%14%13)C%12)O[C@@H](n%12cnc%13c(N)ncnc%13%12)C%11)O[C@@H](n%11cnc%12c(N)ncnc%12%11)C%10)O[C@@H](n%10cnc%11c(=O)[nH]c(N)nc%11%10)C9)O[C@@H](n9cnc%10c(=O)[nH]c(N)nc%109)C8)O[C@@H](n8cc(C)c(=O)[nH]c8=O)C7)O[C@@H](n7cnc8c(=O)[nH]c(N)nc87)C6)O[C@@H](n6cc(C)c(=O)[nH]c6=O)C5)O[C@@H](n5cc(C)c(=O)[nH]c5=O)C4)O[C@@H](n4ccc(N)nc4=O)C3)C2=O)C(N)=O)C(N)=O)NC(=O)[C@H](Cc2ccc(O)cc2)N(C)C(=O)[C@H](Cc2ccc(O)cc2)NC(=O)[C@H](CCCNC(=N)N)NC(=O)[C@H](CCCNC(=N)N)NC(=O)[C@H]([C@@H](C)CC)NC1=O (some centres unmarked) [Example 58] | > 7.00
2 | CC[C@H](C)[C@@H]1NC(=O)[C@H](Cc2ccc(O)cc2)NC(=O)[C@H](Cc2ccc(O)cc2)NC(=O)[C@H](CC(N)=O)NC(=O)[C@H](Cc2c[nH]c3ccccc23)NC(=O)[C@H](C(C)C)NC(=O)[C@H](Cc2ccccc2)N(C)C(=O)[C@H](C(C)C)NC(=O)[C@H](C)NC(=O)CSC[C@@H](C(=O)NCC(=O)N[C@@H](CCCCn2cc(CCC(=O)NCCOCCOCC(=O)N[C@@H](CCCCN)C(=O)N[C@@H](CCCCN)C(=O)N[C@@H](CCCCN)C(=O)NCC(=O)N3C[C@@H](COP(=O)(N(C)C)N4C[C@@H](COP(=O)(N(C)C)N5C[C@@H](COP(=O)(N(C)C)N6C[C@@H](COP(=O)(N(C)C)N7C[C@@H](COP(=O)(N(C)C)N8C[C@@H](COP(=O)(N(C)C)N9C[C@@H](COP(=O)(N(C)C)N%10C[C@@H](COP(=O)(N(C)C)N%11C[C@@H](COP(=O)(N(C)C)N%12C[C@@H](COP(=O)(N(C)C)N%13C[C@@H](COP(=O)(N(C)C)N%14C[C@@H](COP(=O)(N(C)C)N%15C[C@@H](COP(=O)(N(C)C)N%16C[C@@H](COP(=O)(N(C)C)N%17C[C@@H](COP(=O)(N(C)C)N%18C[C@@H](COP(=O)(N(C)C)N%19C[C@@H](COP(=O)(N(C)C)N%20C[C@@H](COP(=O)(N(C)C)N%21C[C@@H](COP(=O)(N(C)C)N%22C[C@@H](COP(=O)(N(C)C)N%23C[C@@H](COP(=O)(N(C)C)N%24C[C@@H](COP(=O)(N(C)C)N%25C[C@@H](COP(=O)(N(C)C)N%26C[C@@H](COP(=O)(N(C)C)N%27C[C@@H](COP(=O)(N(C)C)N(C)CC(N)=O)O[C@@H](n%28cnc%29c(=O)[nH]c(N)nc%29%28)C%27)O[C@@H](n%27cnc%28c(=O)[nH]c(N)nc%28%27)C%26)O[C@@H](n%26ccc(N)nc%26=O)C%25)O[C@@H](n%25ccc(N)nc%25=O)C%24)O[C@@H](n%24cnc%25c(N)ncnc%25%24)C%23)O[C@@H](n%23cnc%24c(N)ncnc%24%23)C%22)O[C@@H](n%22cnc%23c(N)ncnc%23%22)C%21)O[C@@H](n%21ccc(N)nc%21=O)C%20)O[C@@H](n%20ccc(N)nc%20=O)C%19)O[C@@H](n%19cc(C)c(=O)[nH]c%19=O)C%18)O[C@@H](n%18ccc(N)nc%18=O)C%17)O[C@@H](n%17cnc%18c(=O)[nH]c(N)nc%18%17)C%16)O[C@@H](n%16cnc%17c(=O)[nH]c(N)nc%17%16)C%15)O[C@@H](n%15ccc(N)nc%15=O)C%14)O[C@@H](n%14cc(C)c(=O)[nH]c%14=O)C%13)O[C@@H](n%13cc(C)c(=O)[nH]c%13=O)C%12)O[C@@H](n%12cnc%13c(N)ncnc%13%12)C%11)O[C@@H](n%11ccc(N)nc%11=O)C%10)O[C@@H](n%10ccc(N)nc%10=O)C9)O[C@@H](n9cc(C)c(=O)[nH]c9=O)C8)O[C@@H](n8cnc9c(=O)[nH]c(N)nc98)C7)O[C@@H](n7cnc8c(N)ncnc87)C6)O[C@@H](n6cnc7c(N)ncnc76)C5)O[C@@H](n5cnc6c(N)ncnc65)C4)O[C@@H](n4cc(C)c(=O)[nH]c4=O)C3)nn2)C(N)=O)NC(=O)[C@H](Cc2ccc(O)cc2)N(C)C(=O)[C@H](Cc2ccc(O)cc2)NC(=O)[C@H](CCCNC(=N)N)NC(=O)[C@H](CCCNC(=N)N)NC(=O)[C@H]([C@@H](C)CC)NC1=O (some centres unmarked) [Example 61] | > 7.00
